Target: T1, Tyrosine-protein kinase receptor UFO (Homo sapiens, UniProt P30530)
T1 sequence (P30530 whole entry): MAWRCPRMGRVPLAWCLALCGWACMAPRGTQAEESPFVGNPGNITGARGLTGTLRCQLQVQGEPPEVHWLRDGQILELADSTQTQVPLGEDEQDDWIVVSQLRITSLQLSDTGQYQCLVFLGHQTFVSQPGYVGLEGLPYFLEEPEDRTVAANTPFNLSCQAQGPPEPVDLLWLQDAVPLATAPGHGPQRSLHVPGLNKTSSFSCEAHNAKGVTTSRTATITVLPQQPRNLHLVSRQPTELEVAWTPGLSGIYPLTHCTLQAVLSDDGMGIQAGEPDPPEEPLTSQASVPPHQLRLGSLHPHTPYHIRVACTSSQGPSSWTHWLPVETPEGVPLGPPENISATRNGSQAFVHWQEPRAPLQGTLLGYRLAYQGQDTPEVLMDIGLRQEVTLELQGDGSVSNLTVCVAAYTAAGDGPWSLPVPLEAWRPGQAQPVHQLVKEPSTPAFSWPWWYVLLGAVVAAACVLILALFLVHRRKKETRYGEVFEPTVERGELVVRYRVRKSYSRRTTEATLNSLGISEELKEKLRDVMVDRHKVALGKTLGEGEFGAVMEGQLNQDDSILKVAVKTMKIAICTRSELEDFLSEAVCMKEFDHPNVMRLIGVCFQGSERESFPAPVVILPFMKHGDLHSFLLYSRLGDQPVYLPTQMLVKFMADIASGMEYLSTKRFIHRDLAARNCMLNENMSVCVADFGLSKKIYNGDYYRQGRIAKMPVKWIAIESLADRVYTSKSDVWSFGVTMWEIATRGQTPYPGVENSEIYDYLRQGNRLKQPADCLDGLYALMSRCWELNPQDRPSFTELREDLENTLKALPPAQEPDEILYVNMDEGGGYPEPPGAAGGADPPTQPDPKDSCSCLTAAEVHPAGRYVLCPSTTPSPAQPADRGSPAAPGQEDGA
Experiment: PHOSPHO-AKT IN-CELL WESTERN ASSAY: The resulting chemiluminescence was read with a Luminomitor within 10 minutes to minimize changes in signal intensity. After reading the chemiluminescence, the cells were washed 1× with wash buffer and 1× with PBS by plate washer. The plate was tapped onto paper towels to remove excess liquid from wells and air-dried at ambient temperature for 5 minutes.

- IC50: > 20 µM
SMILES: Nc1nc(Nc2ccc(OCCN3CCCCC3)cc2)n(-c2ccccc2)n1

From ChEMBL document CHEMBL5726052, “Substituted triazoles useful as Axl inhibitors” (2019)
